Test results: patent US10035801B2, “Pyrazolo compounds and uses thereof” (CONSTELLATION PHARMACEUTICALS, INC., priority 2013, dated 2018)
pIC50: −log10 of the molar value. Like-named read-outs stand apart in the source and are kept apart here.

Target: T1, KDM5A (Homo sapiens, UniProt P29375)
T1 construct: Full length KDM5A enzyme was expressed and purified inhouse; made in house
Assay: KDM5 enzyme assay, KDM5A HTRF (Example 463)
Format: biochemical

[1] = compounds of Examples 1-432, read-out: Example 463 Assay KDM5A HTRF IC50

T1 sequence (P29375 whole entry): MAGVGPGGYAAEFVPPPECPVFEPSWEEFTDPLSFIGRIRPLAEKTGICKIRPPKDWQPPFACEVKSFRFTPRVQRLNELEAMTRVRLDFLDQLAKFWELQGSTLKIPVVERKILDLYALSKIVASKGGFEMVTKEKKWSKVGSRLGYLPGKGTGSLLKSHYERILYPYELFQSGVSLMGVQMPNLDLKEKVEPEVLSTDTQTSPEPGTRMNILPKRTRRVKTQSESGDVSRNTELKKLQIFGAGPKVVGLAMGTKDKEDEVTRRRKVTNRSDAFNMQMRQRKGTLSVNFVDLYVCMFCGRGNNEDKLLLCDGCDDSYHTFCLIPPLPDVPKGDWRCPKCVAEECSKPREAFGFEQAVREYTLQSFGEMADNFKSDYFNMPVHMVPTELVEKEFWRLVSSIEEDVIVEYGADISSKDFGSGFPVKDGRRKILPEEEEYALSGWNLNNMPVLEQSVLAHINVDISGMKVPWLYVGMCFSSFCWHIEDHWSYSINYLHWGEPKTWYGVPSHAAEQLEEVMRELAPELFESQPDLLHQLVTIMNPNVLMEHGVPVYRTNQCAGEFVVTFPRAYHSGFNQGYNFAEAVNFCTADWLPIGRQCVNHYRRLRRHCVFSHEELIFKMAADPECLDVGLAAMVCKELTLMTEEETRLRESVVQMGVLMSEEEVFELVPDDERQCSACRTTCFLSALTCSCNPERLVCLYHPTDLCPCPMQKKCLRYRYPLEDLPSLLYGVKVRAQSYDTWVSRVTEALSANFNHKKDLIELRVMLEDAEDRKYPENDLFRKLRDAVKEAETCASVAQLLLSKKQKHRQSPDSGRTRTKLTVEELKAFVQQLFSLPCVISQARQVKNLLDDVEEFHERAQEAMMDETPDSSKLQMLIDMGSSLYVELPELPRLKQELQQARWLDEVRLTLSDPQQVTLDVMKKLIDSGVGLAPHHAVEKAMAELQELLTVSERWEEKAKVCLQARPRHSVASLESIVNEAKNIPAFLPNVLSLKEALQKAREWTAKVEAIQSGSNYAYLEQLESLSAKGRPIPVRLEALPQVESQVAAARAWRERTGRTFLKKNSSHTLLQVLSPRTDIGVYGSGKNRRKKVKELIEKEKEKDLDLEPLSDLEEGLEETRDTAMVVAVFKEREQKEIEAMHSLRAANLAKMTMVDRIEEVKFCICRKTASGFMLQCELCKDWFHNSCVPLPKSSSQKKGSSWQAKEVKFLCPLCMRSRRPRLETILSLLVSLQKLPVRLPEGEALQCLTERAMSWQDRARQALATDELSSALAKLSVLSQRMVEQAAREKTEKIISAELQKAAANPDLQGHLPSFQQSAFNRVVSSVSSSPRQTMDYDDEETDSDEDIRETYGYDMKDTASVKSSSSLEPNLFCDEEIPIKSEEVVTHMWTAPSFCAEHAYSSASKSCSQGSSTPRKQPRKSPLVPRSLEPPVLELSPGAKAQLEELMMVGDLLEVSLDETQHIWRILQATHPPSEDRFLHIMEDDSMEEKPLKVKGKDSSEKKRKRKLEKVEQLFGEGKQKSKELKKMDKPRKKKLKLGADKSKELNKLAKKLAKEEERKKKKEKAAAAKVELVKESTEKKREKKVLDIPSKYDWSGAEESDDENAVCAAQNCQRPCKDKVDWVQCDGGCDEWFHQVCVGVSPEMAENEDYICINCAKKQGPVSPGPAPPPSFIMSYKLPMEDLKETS

Row | Compound | pIC50 [1] | pIC50
1 | CC(c1c(-c2ccccc2)[nH]c2c(C#N)cnn2c1=O)C1CC1 (centres unmarked) [Example 39, 6-(1-cyclopropylethyl)-7-oxo-5-phenyl-4H-pyrazolo[1,5-a]pyrimidine-3-carbonitrile] | 6.89 | –
2 | CCc1c(-c2cccc(-c3ccccc3)c2)[nH]c2c(C#N)cnn2c1=O [Example 40, 5-([1,1′-Biphenyl]-3-yl)-6-ethyl-7-oxo-4,7-dihydropyrazolo[1,5-a]pyrimidine-3-carbonitrile] | 8.00 | –
3 | CCc1c(-c2cccc(Nc3ccc(F)cc3)c2)[nH]c2c(C#N)cnn2c1=O [Example 41, 6-Ethyl-5-(3-((4-fluorophenyl)amino)phenyl)-7-oxo-4,7-dihydropyrazolo[1,5-a]pyrimidine-3-carbonitrile] | 7.72 | –
4 | CC(C)c1c(-c2cccc(N3CCCC3=O)c2)[nH]c2c(C#N)cnn2c1=O [Example 42, 6-isopropyl-7-oxo-5-(3-(2-oxopyrrolidin-1-yl)phenyl)-4,7-dihydropyrazolo[1,5-a]pyrimidine-3-carbonitrile] | 7.68 | –
5 | N#Cc1cnn2c(=O)cc(-c3cc(N)cc(-c4ccccc4)c3)[nH]c12 [Example 43, 5-(3-amino-5-phenyl-phenyl)-7-oxo-4H-pyrazolo[1,5-a]pyrimidine-3-carbonitrile] | 7.08 | –
6 | CC(=O)Nc1cc(-c2ccccc2)cc(-c2cc(=O)n3ncc(C#N)c3[nH]2)c1 [Example 44, N-[3-(3-Cyano-7-oxo-4H-pyrazolo[1,5-a]pyrimidin-5-yl)-5-phenyl-phenyl]acetamide] | 6.43 | –
7 | N#Cc1cnn2c(=O)c(Br)c(-c3ccccc3)[nH]c12 [Example 45, 6-Bromo-7-oxo-5-phenyl-4,7-dihydropyrazolo[1,5-a]pyrimidine-3-carbonitrile] | – | 7.52
8 | Cc1[nH]c2c(C#N)cnn2c(=O)c1-c1ccco1 [Example 46, 6-(2-Furyl)-5-methyl-7-oxo-4H-pyrazolo[1,5-a]pyrimidine-3-carbonitrile] | 5.54 | –
9 | CC(C)c1c(Nc2ccccc2)[nH]c2c(C#N)cnn2c1=O [Example 47, 6-isopropyl-7-oxo-5-(phenylamino)-4,7-dihydropyrazolo[1,5-a]pyrimidine-3-carbonitrile] | 7.62 | –
10 | CC(C)c1c(N2CCCCC2)[nH]c2c(C#N)cnn2c1=O [Example 48, 6-isopropyl-7-oxo-5-(piperidin-1-yl)-4,7-dihydropyrazolo[1,5-a]pyrimidine-3-carbonitrile] | 7.08 | –
11 | CC(C)c1c(Oc2ccccc2)[nH]c2c(C#N)cnn2c1=O [Example 49, 6-isopropyl-7-oxo-5-phenoxy-4,7-dihydropyrazolo[1,5-a]pyrimidine-3-carbonitrile] | 7.60 | –
12 | CC(C)c1c(-c2coc3ccccc23)[nH]c2c(C#N)cnn2c1=O [Example 50] | 7.70 | –
13 | CC(C)c1c(-c2ccn(-c3ccccc3)n2)[nH]c2c(C#N)cnn2c1=O [Example 51] | 8.08 | –
14 | CC(C)c1c(-c2ccc(C3CC3)o2)[nH]c2c(C#N)cnn2c1=O [Example 52] | 8.24 | –
15 | Cc1occc1-c1[nH]c2c(C#N)cnn2c(=O)c1C(C)C [Example 53] | 7.77 | –
16 | CC(C)c1c(-c2cnn(-c3ccccc3)c2)[nH]c2c(C#N)cnn2c1=O [Example 54] | 8.22 | –
17 | CCn1cc(-c2[nH]c3c(C#N)cnn3c(=O)c2C(C)C)cn1 [Example 55] | 7.96 | –
18 | CC(C)c1c(-c2ccc(=O)n(C)c2)[nH]c2c(C#N)cnn2c1=O [Example 56] | 7.80 | –
19 | CCc1c(-c2ccco2)[nH]c2c(C#N)cnn2c1=O [Example 57] | 8.24 | –
20 | CC(C)c1c(-c2cc(C3CC3)co2)[nH]c2c(C#N)cnn2c1=O [Example 58] | 8.14 | –
21 | CC(C)c1c(-c2ccc(-c3ccccc3)o2)[nH]c2c(C#N)cnn2c1=O [Example 59] | 7.47 | –
22 | CC(C)c1c(-c2cnn(C(C)C)c2)[nH]c2c(C#N)cnn2c1=O [Example 60] | 7.72 | –
23 | CC(C)c1c(-c2cncnc2)[nH]c2c(C#N)cnn2c1=O [Example 61] | 8.00 | –
24 | Cc1cncc(-c2[nH]c3c(C#N)cnn3c(=O)c2C(C)C)c1 [Example 62] | 7.92 | –
25 | CC(C)c1c(-c2ccn(C)n2)[nH]c2c(C#N)cnn2c1=O [Example 63] | 7.82 | –
26 | CC(C)c1c(-c2ccccc2F)[nH]c2c(C#N)cnn2c1=O [Example 66] | 7.85 | –

Row | Compound | pIC50 [1] | pIC50
27 | CC(C)c1c(-c2ccc(C#N)cc2)[nH]c2c(C#N)cnn2c1=O [Example 67] | 8.00 | –
28 | COc1ccc(-c2[nH]c3c(C#N)cnn3c(=O)c2C(C)C)cc1 [Example 68] | 7.89 | –
29 | CC(C)c1c(-c2ccc(C(F)(F)F)cc2)[nH]c2c(C#N)cnn2c1=O [Example 69] | 7.68 | –
30 | CC(C)c1c(-c2ccc(F)cc2)[nH]c2c(C#N)cnn2c1=O [Example 70] | 8.11 | –
31 | CCc1c(-c2cnn(Cc3ccccc3)c2)[nH]c2c(C#N)cnn2c1=O [Example 71] | 8.35 | –
32 | CC(C)c1c(-c2cnn(Cc3ccccc3)c2)[nH]c2c(C#N)cnn2c1=O [Example 72] | 8.00 | –
33 | CC(C)c1c(-c2cncc(Cl)c2)[nH]c2c(C#N)cnn2c1=O [Example 73] | 8.14 | –
34 | CC(C)c1c(-c2cncc(F)c2)[nH]c2c(C#N)cnn2c1=O [Example 74] | 8.40 | –
35 | C=C(C)c1[nH]c2c(C#N)cnn2c(=O)c1C(C)C [Example 75] | 8.00 | –
36 | C=Cc1[nH]c2c(C#N)cnn2c(=O)c1C(C)C [Example 76] | 8.22 | –
37 | CC(C)c1c(-c2ccnn2C)[nH]c2c(C#N)cnn2c1=O [Example 77] | 7.92 | –
38 | CC(C)c1c(-c2cc(CO)co2)[nH]c2c(C#N)cnn2c1=O [Example 78] | 8.11 | –
39 | CC(C)c1c(-c2cccc(C#N)c2)[nH]c2c(C#N)cnn2c1=O [Example 79] | 7.89 | –
40 | CC(C)c1c(-c2ccn[nH]2)[nH]c2c(C#N)cnn2c1=O [Example 80] | 8.17 | –
41 | CC(C)c1c(-c2ccco2)[nH]c2c(C#N)cnn2c1=O [Example 81] | 8.19 | –
42 | CC(C)c1c(C2=CCOC2)[nH]c2c(C#N)cnn2c1=O [Example 82] | 7.92 | –
43 | CC(C)c1c(-c2ccsc2)[nH]c2c(C#N)cnn2c1=O [Example 83] | 7.92 | –
44 | CC(C)c1c(-c2cccs2)[nH]c2c(C#N)cnn2c1=O [Example 84] | 8.08 | –
45 | CC(C)c1c(-c2cnn(C)c2)[nH]c2c(C#N)cnn2c1=O [Example 85] | 7.92 | –
46 | Cc1ccc(-c2[nH]c3c(C#N)cnn3c(=O)c2C(C)C)o1 [Example 86] | 8.35 | –
47 | CC(C)c1c(-c2ccc(CO)o2)[nH]c2c(C#N)cnn2c1=O [Example 87] | 8.12 | –
48 | CC(C)c1c(-c2cccc(C(F)(F)F)c2)[nH]c2c(C#N)cnn2c1=O [Example 88] | 7.85 | –
49 | COc1cccc(-c2[nH]c3c(C#N)cnn3c(=O)c2C(C)C)c1 [Example 89] | 8.00 | –
50 | CC(C)c1c(-c2cccc(F)c2)[nH]c2c(C#N)cnn2c1=O [Example 90] | 8.05 | –
51 | CC(C)c1c(-c2cccnc2)[nH]c2c(C#N)cnn2c1=O [Example 91] | – | 7.92
52 | CCc1c(-c2cn[nH]c2)[nH]c2c(C#N)cnn2c1=O [Example 92] | 8.26 | –

Row | Compound | pIC50 [1] | pIC50
53 | CC(C)c1c(-c2cnn(S(C)(=O)=O)c2)[nH]c2c(C#N)cnn2c1=O [Example 93] | 7.89 | –
54 | CC(C)c1c(-c2cnn(C3CCCC3)c2)[nH]c2c(C#N)cnn2c1=O [Example 94] | 7.92 | –
55 | CC(C)c1c(-c2cnn(Cc3ccsc3)c2)[nH]c2c(C#N)cnn2c1=O [Example 95] | 7.96 | –
56 | CC(C)c1c(-c2ccc(Cl)c(C(=O)N3CCOCC3)c2)[nH]c2c(C#N)cnn2c1=O [Example 96] | 7.47 | –
57 | CC(C)c1c(-c2ccc(C(=O)NC3CCCC3)c(Cl)c2)[nH]c2c(C#N)cnn2c1=O [Example 97] | 7.42 | –
58 | CC(C)c1c(-c2cnn(C(C)(C)CO)c2)[nH]c2c(C#N)cnn2c1=O [Example 98] | 7.43 | –
59 | COc1cccc(Cn2cc(-c3[nH]c4c(C#N)cnn4c(=O)c3C(C)C)cn2)c1 [Example 99] | 8.22 | –
60 | CC(C)c1c(-c2cnn(Cc3ccncc3)c2)[nH]c2c(C#N)cnn2c1=O [Example 100] | 8.10 | –
61 | CC(C)c1c(-c2cnn(Cc3ccccc3Cl)c2)[nH]c2c(C#N)cnn2c1=O [Example 101] | 8.07 | –
62 | CC(C)c1c(-c2cnn(Cc3cccc(Oc4ccccc4)c3)c2)[nH]c2c(C#N)cnn2c1=O [Example 102] | 8.00 | –
63 | CC(C)c1c(-c2cnn(Cc3ccc(Oc4ccccc4)cc3)c2)[nH]c2c(C#N)cnn2c1=O [Example 103] | 8.26 | –
64 | CC(C)c1c(-c2cnn(C3CCCCC3)c2)[nH]c2c(C#N)cnn2c1=O [Example 104] | 7.68 | –
65 | CC(C)c1c(-c2cnn(C(C)c3ccccc3)c2)[nH]c2c(C#N)cnn2c1=O (centres unmarked) [Example 105] | 8.10 | –
66 | CC(C)c1c(-c2cnn(C3CCC3)c2)[nH]c2c(C#N)cnn2c1=O [Example 106] | 7.74 | –
67 | CCC(C)n1cc(-c2[nH]c3c(C#N)cnn3c(=O)c2C(C)C)cn1 (centres unmarked) [Example 107] | 7.72 | –
68 | CC(C)c1c(-c2ccc(F)c(C(=O)N3CCCC3)c2)[nH]c2c(C#N)cnn2c1=O [Example 108] | 7.55 | –
69 | CC(C)c1c(-c2ccn(S(=O)(=O)C3CC3)n2)[nH]c2c(C#N)cnn2c1=O [Example 109] | 7.96 | –
70 | CC(C)c1c(-c2ccn(C(=O)C3CC3)n2)[nH]c2c(C#N)cnn2c1=O [Example 110] | 8.15 | –
71 | CC(C)c1c(-c2cnn(CCC3CC3)c2)[nH]c2c(C#N)cnn2c1=O [Example 111] | 7.82 | –
72 | COC(=O)c1c(-c2ccccc2)[nH]c2c(C#N)cnn2c1=O [Example 112] | 6.48 | –
73 | CC(C)c1c(-c2cnn(Cc3cccc(-c4ccccc4)c3)c2)[nH]c2c(C#N)cnn2c1=O [Example 113] | 8.22 | –
74 | CC(C)c1c(-c2cnn(CCc3ccccc3)c2)[nH]c2c(C#N)cnn2c1=O [Example 114] | 8.26 | –
75 | COc1ccccc1Cn1cc(-c2[nH]c3c(C#N)cnn3c(=O)c2C(C)C)cn1 [Example 115] | 8.22 | –
76 | COc1ccc(Cn2cc(-c3[nH]c4c(C#N)cnn4c(=O)c3C(C)C)cn2)cc1 [Example 116] | 8.10 | –
77 | CC(C)c1c(-c2cnn(C(C)(C)C)c2)[nH]c2c(C#N)cnn2c1=O [Example 117] | 7.85 | –
